Laboratory results published in patent US20170204038A1, “3-(4-ISOBUTYL-2-METHYLPHENYL) PROPANAL AS PERFUME INGREDIENT” (Givaudan, S.A., priority 2013, published 2017).

Columns and labels:
[1] = test system: rat hepatocytes; assay: In vitro metabolism study in rat hepatocytes in suspension (GC-MS / LC-MS); settings: for Residual test compound: male, Sprague-Dawley, rat, 4 h, 100 μM
Description: In order to study in vitro metabolism in rat hepatocytes Lilial™ and the compound of the present invention are incubated in presence of rat hepatocytes in suspension. Decrease of Lilial™ and the compound of the present invention, and formation of the corresponding benzoic acid derivative may be analysed by GC-MS.
Cryopreserved hepatocytes from male rats (Sprague Dawley; Lifetechnologies) were defrozen, washed in Cyropreserved Hepatocytes Recovery Medium (CHRM; Lifetechnologies) and suspended in Williams E Medium (WEM; Lifetechnologies). Lilial™, or the compound of formula (I) (final concentration: 100 μM) were added to the cells (1×10^6 viable cells/ml) and suspensions were incubated up to 4 hours at 37° C. on a shaker in duplicate. Metabolism of testosterone was monitored as positive control. Decrease of the test compounds and formation of the corresponding benzoic acid derivative was determined by GC-MS analysis of methyl-esters formed after derivatisation with trimethylsilyl-diazomethane (Sigma-Aldrich) in methanol. The test compounds react with diazomethane yielding a methyl-ketone which was used for the quantification of Lilial™ and the compound of formula (I). Metabolism was stopped with ice cold 1 M HCl, samples were extracted with tert-butyl methyl ether (MTBE) and analysed by GC-MS. Incubations containing testosterone as control were also stopped with ice cold 1 M HCl, centrifuged to separate the cells, filtrated and the decrease of testosterone analysed by LC-MS. To quantify decrease of the test substances and formation of benzoic acid metabolites, calibration curves of reference materials (Lilial™ and the compound of formula (I), tert-butyl benzoic acid (Fluka) was prepared in hepatocyte incubation medium and analysed like the hepatocyte samples.

[2] = Odour Value (ratio of vapour pressure to detection threshold concentration)
Description: The compound of formula (I) is a particularly impactful perfume ingredient. The impact that a perfume ingredient exerts is related to its Odour Value. Odour Value is the ratio of vapour pressure to detection threshold concentration.

[3] = test system: primates; settings: cited from earlier work
[4] = test system: dogs; settings: dog, in vivo; cited from earlier work
[5] = test system: male rats; settings: rat, in vivo; cited from earlier work
[6] = test system: mice; settings: cited from earlier work
[7] = test system: guinea-pigs; settings: cited from earlier work
[8] = test system: glucose synthesis; settings: in vitro; cited from earlier work
[9] = test system: male rats; settings: cited from earlier work
[10] = test system: fatty acid synthesis; settings: in vitro; cited from earlier work

## Cc1cc(CC(C)C)ccc1CCC=O [Compound of formula (I), 3-(4-isobutyl-2-methylphenyl)propanal]
[1]
  Residual test compound: 0 µM
[2]
  Odour Value: 559,071

## CC(C=O)Cc1ccc(C(C)C)cc1 (centres unmarked) [Cyclamen aldehyde, 3-p-cumenyl-2-methylpropionaldehyde]
[2]
  Odour Value: 21,986

## CC(C=O)Cc1ccc(C(C)(C)C)cc1 (centres unmarked) [Lilial™, 3-(4-tert-butylphenyl)-2-methylpropanal]
[3]
  effects in studies with primates: No effects
[4]
  toxic effects on the reproductive organs: toxic effects
[1]
  Residual test compound: 0 µM
[5]
  toxic effects on the reproductive organs: toxic effects
[2]
  Odour Value: 32,978
[6]
  effects in studies with mice: No effects
[7]
  effects in studies with guinea-pigs: No effects

## CC(C)(C)c1ccc(C(=O)O)cc1 [tert-butyl benzoic acid]
[8]
  inhibition of glucose synthesis: inhibit
[9]
  testicular effects: cause testicular effects
[10]
  inhibition of fatty acid synthesis: inhibit

## C[C@]12CC[C@H]3[C@@H](CCC4=CC(=O)CC[C@@]43C)[C@@H]1CC[C@@H]2O [testosterone]
[1]; rat hepatocytes, LC-MS
  Decrease of testosterone (positive control): rapid decrease
